Experimental findings from US20070105875A1, “Fungicidal mixtures” (priority 2004, published 2007) are described below.

The structures appear in SMILES notation.

For the experiment, the system named is Corticium sasakii (syn. Rhizoctonia solani). The experiment is described as follows: Activity against sheath blight on rice caused by Corticium sasakii (protective spray test on potted rice plants). The experiment is classed as in vivo. As to conditions: individual active compound, rice cultivar Tai-Nong 67, evaluation after 11 days, untreated control 90% infection. As to the method:
The active compounds, separately or jointly, were prepared as a stock solution with 0.25% by weight of active compound in acetone or DMSO. 1% by weight of the emulsifier Uniperol® EL (wetting agent having emulsifying and dispersing action based on ethoxylated alkylphenols) was added to this solution, and the solution was diluted with water to the desired concentration.
Activity Against Sheath Blight on Rice Caused by Corticium sasakii (syn. Rhizoctonia solani)
Pots of rice plants of the cultivar “Tai-Nong 67” were sprayed to runoff point with an aqeuous suspension having the concentration of active compound stated below. The next day, oat grains infected with Corticium sasakii were placed into the pots (in each case 5 grains per pot). The plants were then placed in a chamber at 26° C. and maximum atmospheric humidity. After 11 days, the sheath blight on the untreated but infected control plants had developed to such an extent that the infection could be determined visually in %.
Evaluation is carried out by determining the infected leaf areas in percent. These percentages were converted into efficacies.
The efficacy (E) is calculated as follows using Abbot's formula: E=(1−α/β)·100 α corresponds to the fungicidal infection of the treated plants in % and β corresponds to the fungicidal infection of the untreated (control) plants in %
An efficacy of 0 means that the infection level of the treated plants corresponds to that of the untreated control plants; an efficacy of 100 means that the treated plants are not infected.
The expected efficacies of the mixtures of active compounds are determined using Colby's formula [R. S. Colby, Weeds 15, 20-22 (1967)] and compared with the observed efficacies.
Colby's Formula: E=x+y−x·y/100 • E expected efficacy, expressed in % of the untreated control, when using the mixture of the active compounds A and B at the concentrations a and b • x efficacy, expressed in % of the untreated control, when using active compound A at the concentration a • y efficacy, expressed in % of the untreated control, when using active compound B at the concentration b

For the molecule `CC1CCN(c2c(-c3c(F)cccc3Cl)c(Cl)nc3ncnn23)CC1` [A], the “Efficacy in % of the untreated control” value (1 ppm in the spray liquor) came out at 0%.
Regarding `C[C@H](Nc1c(-c2c(F)cc(F)cc2F)c(Cl)nc2ncnn12)C(F)(F)F` [B], the “Efficacy in % of the untreated control” value (1 ppm in the spray liquor) stood at 0%.
Still for that read-out and setting: for `CC1CCN(c2c(-c3c(F)cc(F)cc3F)c(Cl)nc3ncnn23)CC1` [I, 5-chloro-7-(4-methylpiperidin-1-yl)-6-(2,4,6-trifluorophenyl)-[1,2,4]triazolo[1,5-a]pyrimidine] the value was 33%.
For the molecule `CO/N=C(/C(=O)OC)c1ccccc1COc1ccccc1C` [II (kresoxim-methyl), methyl methoxyimino-(2-o-tolyloxymethylphenyl)acetate], the “Efficacy in % of the untreated control” value was found to be 0% (1 ppm in the spray liquor) and 0% (4 ppm in the spray liquor).
